Residues, ends and D or L forms follow the SMILES beside them. *: point of attachment. Cbz = O=C(OCc1ccccc1)*
Row | Compound | melting point
1 | CC(Oc1ccc([N+](=O)[O-])cc1[N+](=O)[O-])C(=O)O (configuration not stated) | 167 to 171 °C
2 | ONC1CCn2c1cc1ccccc12 (configuration not stated) | 159 to 161 °C
3 | Cc1cc(C)nc(Nc2ccc(OC(F)F)cc2)n1 | 81 to 82 °C
4 | CCCCN(CCCC)C(=O)C1=NN(c2ccccc2)C(C(N)=O)=NN1c1ccccc1 | 160 to 161 °C
5 | Cc1oc(-c2ccco2)nc1CCc1ccc(CCCCC2OC(=O)NC2=O)cc1 (configuration not stated) | 140 to 141 °C
6 | N#Cc1cc(-c2ccc(Cl)cc2)cnc1N | 202 to 204 °C
7 | CCOC(=O)CNc1c(C)cc(C(O)(C(F)(F)F)C(F)(F)F)cc1C | 91 to 93 °C
8 | O=C(O)COc1ccc2c(=O)c3cccc(Cl)c3oc2c1Cl | 283 to 286 °C
9 | COc1ccccc1-n1c(=O)[nH]c2c(C(N)=O)nc(-c3ccc4nc(C)[nH]c4c3)nc21 | 270 °C
10 | CN1CCC(OC(c2ccccc2)c2nc3cc(Cl)c(Cl)cc3[nH]2)CC1 (configuration not stated) | 221 °C
11 | CCc1cc(-c2ccc(Cl)cc2)nc2c(I)cnn12 | 150 to 152 °C
12 | CNc1nc(-c2ccccc2)ccc1[N+](=O)[O-] | 98 to 99 °C
13 | COc1ccc(Br)cc1C(=O)NCCc1ccc(CCC(=O)O)cc1 | 120 to 121 °C
14 | O=C(c1ccn2c1CSC2c1cccnc1)c1cn(Cc2nnn[nH]2)c2cc(-c3ccc(F)cc3)ccc12 (configuration not stated) | 110 to 118 °C
15 | COc1cnc(CSc2nc3cc(OC(F)(F)F)ccc3[nH]2)c(C)c1OC | 94 to 97 °C
16 | O=C(O)c1ccc(OCCNC(=O)C2Cc3ccccc3N2S(=O)(=O)c2ccc(-c3ccc(F)cc3F)cc2)cc1 (configuration not stated) | 92 °C
17 | CCOC(=O)Cc1nc(-c2ccccc2)oc1-c1cccs1 | 82 to 83 °C
18 | CCCCc1c(C(=O)c2ccc(O)cc2)n(C)c2ccc([N+](=O)[O-])cc12 | 172 °C
19 | C=C(c1cc(C(C)(C)C)cc2c1CCC2(C)C)c1sccc1C(=O)O | 148 to 150 °C
20 | Cc1cccc(NC(=O)NCC(=O)N(CC(=O)OC(C)(C)C)c2ccc(Cl)cc2)c1 | 125 °C
21 | COc1cc2c(c3c1OC(C)(C)C3)C(c1ccncc1)=NC(C)(C)C2 | 173 to 175 °C
22 | CNc1nc2c(Cc3cccnc3)c(C)c(O)c(C)c2s1 | 236 to 238 °C

Row | Compound | melting point
23 | Cc1cccc(Nc2nnc(Cc3ccncc3)c3ccccc23)c1 | 141 to 143 °C
24 | COCn1ncc2cc(-c3nnc(S)o3)ccc21 | > 300 °C
25 | N#Cc1ccc(OCCCCCOc2cccc(-c3cc4cc(C#N)ccc4o3)c2)cc1 | 142 to 145 °C
26 | O=Cc1cc([N+](=O)[O-])ccc1C1SCCCS1 | 99 to 101 °C
27 | Oc1ccc(-c2nn(-c3cc(F)ccc3F)c3cc(O)ccc23)c(O)c1 | 88 to 91 °C
28 | NP(N)(=O)NC(=O)c1cccs1 | 272 to 280 °C
29 | C[C@]1(COc2ccc3nc(N4CCN(Cc5ccc(OC(F)(F)F)cc5)CC4)sc3c2)Cn2cc([N+](=O)[O-])nc2O1 | 206 to 207 °C
30 | CC(=O)Oc1c(C=C(C#N)C#N)[nH]c2ccccc12 | 210 to 212 °C
31 | O=C1COC(C#Cc2ccccc2)(C(F)(F)F)c2cc(Cl)ccc2N1 (configuration not stated) | 190 to 191 °C
32 | O=C(O)CCCCc1nn(-c2cccc(C(F)(F)F)c2)c2c1CCCC2 | 105 °C
33 | CCCC(C(=O)N(C)C)n1cc(C)c(-c2ccco2)n1 (configuration not stated) | 107 to 109 °C
34 | Cc1cc2c(-c3cccc(CCC(=O)O)c3)c(CC(=O)Nc3ccc(F)cc3C(F)(F)F)c(=O)oc2cc1Cl | 212 to 214 °C
35 | O=C(c1ccccc1)c1nc(Br)c2n1CCC2C(=O)O (configuration not stated) | 190 to 192 °C
36 | CN1CCC2(C)c3cc(O)cc(Cl)c3N(C)C12 (configuration not stated) | 152 to 154 °C
37 | CC(C)c1csc(NC(=O)OC(C)(C)C)c1C(=O)O | 205 to 206 °C
38 | Cc1nc(-c2ccc3c(c2)c(-c2cc4cccnc4[nH]2)cn3C)no1 | 290 to 294 °C
39 | CCc1cccc(C)c1S(=O)(=O)c1nn(C(=O)N(CC)CC)cc1Cl | 68 to 72 °C
40 | N#CC(C=O)c1ccc(NS(=O)(=O)c2cccc(Cl)c2Cl)cc1 (configuration not stated) | 88 to 102 °C
41 | OCC1(c2ccccc2)CCCC1 | 41 to 44 °C
42 | CCN(CC)C(=O)c1ccc(OC)cc1-c1ccccc1 | 64 to 65 °C
43 | c1cncc(-c2cccc(-n3cnc4cc(-c5ccoc5)cnc43)c2)c1 | 191 to 192 °C
44 | NC(=O)c1sc2nccc(N3CCCN(c4ccc(Cl)cc4)CC3)c2c1N | 92 to 96 °C

Row | Compound | melting point
45 | CCOC(=O)c1c(C(F)(F)F)nc(OCC)c(C(=O)OC)c1OCC | 46 to 48 °C
46 | O=C(Nc1cccc(C(F)(F)F)c1)c1ccccc1O | 188 to 191 °C
47 | Cc1ccc2c(c1)C1CN(Cc3ccccc3)CCC1N2 (configuration not stated) | 179 to 182 °C
48 | CC(C)OC(=O)N1CC(=O)Nc2ccc(-c3cccc(Cl)c3)cc21 | 174 to 176 °C
49 | CN(C)CCCSc1cccc2c1NC(=O)CC2c1ccccc1 (configuration not stated) | 64 to 66 °C
50 | Cn1cc(C2CCN(CCn3cnc4ccccc4c3=O)CC2)c2ccccc21 | 78 °C
51 | O=c1[nH]c2cc(I)ccc2n(CP(=O)(O)O)c1=O | 295 to 297 °C
52 | Clc1ccccc1C1(c2ccc(-c3ccccc3)cc2)CO1 (configuration not stated) | 70 °C
53 | N#Cc1ccc(N2CCC(=O)C2)c2ccccc12 | 153 to 154 °C
54 | CCOc1ccccc1C=[N+]([O-])C1CCCC1 | 87.3 °C
55 | CC(C)c1ccc(CCC(O)CC2CCCCC2)cc1NC(=O)CC1c2ccccc2Oc2ccccc21 (configuration not stated) | 144 to 145 °C
56 | S=C(NC1CCCCC1)N1CCN(c2cnccn2)CC1 | 176 to 178 °C
57 | CC1=NC(C)c2nnc(-c3ccc(Cl)cc3)n2-c2ccccc21 (configuration not stated) | 230 °C
58 | O=C1COc2cc(NC(=O)C(=O)O)ccc2N1 | 232 to 236 °C
59 | COC(=O)C=Cc1ccc2[nH]ccc2c1 | 138 to 140 °C
60 | CCCn1c(=O)c2c(NC)n[nH]c2n(Cc2cccs2)c1=O | > 300 °C
61 | CCCCCCCCCC[C@@]1(C)OO[C@@H]2C[C@H]1CC(=O)[C@@H]2C | 40 °C
62 | COC(=O)[C@H](Cc1ccccc1)NC(=O)[C@H](CC(=O)O)NC(=O)OCc1ccccc1 (Cbz-Asp-Phe-OMe) | 113 to 116 °C
63 | COc1ccc2nc(NC(=O)c3nnn(Cc4ccc(Cl)c(Cl)c4)c3C)sc2c1 | 225 °C
64 | N#CC1(c2ccc(F)cc2)CCC(N2CCC(C(=O)O)(c3ccccc3)CC2)CC1 (configuration not stated) | 281 °C

The next lines start with the values.

Row | melting point | Compound
65 | 57 °C | COC1(OC)CCC2=C(CC(C)C3C2CCC2(C)CCCC32)C1 (configuration not stated)
66 | 205 to 207 °C | COc1ccc(-c2ccc3cc(C4SC(=O)NC4=O)ccc3c2)cc1C12CC3CC(CC(C3)C1)C2 (configuration not stated)
67 | 177 to 186 °C | Cc1cccc(C)c1C1C(=O)CC(C)(C)CC1=O
68 | 135 to 136 °C | CN1C[C@@H](C(=O)OC(C)(C)C)NC1=O
69 | 203 to 204 °C | Cn1c2ccc(OCc3ccccc3)cc2c2c(CC(=O)N3CCCC3)nn(-c3ccccc3)c(=O)c21
70 | 188 to 189 °C | CCOC(=O)c1cccc2nc(CC)n(Cc3ccc(-c4ccccc4-c4nnn[nH]4)cc3)c12
71 | 132 °C | CNC(=O)c1cc(Br)cc(-c2ccccc2)c1
72 | 180 °C | CC(=O)O[C@@H]1C2=C(OC(C(C)=O)=C[C@@H]2N2CCCCC2=O)SC1(C)C (relative stereo)
73 | 100 to 102 °C | Cc1ccc(CSC2=C(O)CC(C)(C)CC2=O)cc1
74 | 107 to 110 °C | CCN(CC)CCCNC(=O)C1=C(O)c2ccccc2S(=O)(=O)N1C
75 | 139 to 140 °C | CCOC(=O)c1nn(-c2ccc(Cl)cc2)c2c1CCCC2
76 | 215 to 217 °C | c1ccc2c(c1)Nc1ccccc1-n1ccnc1-2
77 | 202 to 204 °C | COc1sc(-c2cc[nH]n2)c2c1C(=O)CC(C)(C)C2
78 | 158 to 160 °C | CN=C(NS(=O)(=O)N1CCC(F)(F)CC1)N1CC(c2ccccc2)C(c2ccc(Cl)cc2)=N1 (configuration not stated)
79 | 135 to 137 °C | CNc1n[nH]c(=O)n1NC
80 | 140 to 141 °C | CCC(=O)NCc1ccc(CN2CCN(c3ccccc3)CC2)cc1
81 | 130 to 131 °C | CN1C(=O)CC[C@]2(C)c3ccc(C(=O)OC(c4ccccc4)c4ccccc4)cc3CC[C@@H]12
82 | 239 to 241 °C | COC(=O)c1cc(-c2c[nH]nc2-c2ccc(F)cc2)ccn1
83 | 184 to 186 °C | O=c1c2cc(F)c(N3CCCC3)nc2n(C2CC2)c(=O)n1OCc1ccccc1

Row | melting point | Compound
84 | > 300 °C | CC(=O)N(C)c1c(I)c(NC(=O)CS(=O)(=O)CC(=O)O)c(I)c(C(=O)O)c1I
85 | 150 °C | CNC(=O)c1cccc(NC(=O)Cc2cccc(OCc3ccccc3)c2)c1
86 | 92 to 93.5 °C | CCOC(=O)Cc1cc(C)c(C(=O)c2ccc(Cl)c(Cl)c2)n1C
87 | 227 to 230 °C | Cc1cc(Cc2ccc(NC(=O)N(C)C)cn2)n(C)c1C(=O)c1ccc(Cl)cc1
88 | 141 to 146 °C | COCC(=O)C(=NNc1ccc(I)cc1F)C(=O)OC
89 | 107 °C | COc1cc(OCC(O)CCl)cc2oc3ccccc3c(=O)c12 (configuration not stated)
90 | 237 to 238 °C | O=C1CC(C(=O)NC(Cc2ccc(C(F)(F)F)cc2)C(O)c2ccc(F)cc2)c2ccccc21 (racemic)
91 | 149 to 150 °C | C=CCOc1nccnc1Cl
92 | 210 to 212 °C | COc1ccc(Oc2cccc(C3C4=C(CC(C)(C)CC4=O)NC4=C3C(=O)CC(C)(C)C4)c2)cc1
93 | 89 to 90 °C | O=C1C2=C(CCCC2)C(Cl)N1c1ccc(Cl)cc1F (configuration not stated)
94 | 130 to 131 °C | O=C(O)CCCC=Cc1nn(-c2ccccc2)c2c1CCC2
95 | 162 °C | CCOC(=O)N1CCC(Nc2nc3ccccc3n2Cc2ccccn2)CC1
96 | 146 to 148 °C | Cc1cc(C(=O)c2ccc(O)cc2)ccc1[N+](=O)[O-]
97 | 87 to 90 °C | Cc1cn(C(C)(C)C(=O)NCc2ccccc2)nc1-c1ccccc1
98 | > 250 °C | O=C1NC2COc3cc4c(cc3C2c2ccsc21)OCO4 (configuration not stated)
99 | 137 to 140 °C | CCCCCCCCCCCCc1c[nH]c(C(=O)NN)c1
100 | 160 to 162 °C | O=C(c1ccccc1)c1cnn2c(-c3cccc(N4CCCCC4=O)c3)ccnc12
101 | 68 to 70 °C | CCOc1ccc(C=CC(=O)OC)cc1
102 | 146 to 148 °C | O=C(Nc1ccc(-n2nc(C(F)(F)F)cc2C(F)(F)F)cc1)C1=CCCCC1

Source: a melting point compilation (Tetko et al.; mined from patent text by program, amines drawn as free bases though some values may be those of a salt)
